The test system of this assay is L1210 leukemia ip in BDF1 mice, survival T/C. Put plainly: NCI In Vivo Anticancer Drug Screen. Data for tumor model L1210 Leukemia (intraperitoneal) in B6D2F1 (BDF1) mice. The conditions noted are these: endpoint: mean survival time, higher = longer survival. The method, boiled down:
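Value reflects the ratio of survival in compound-treated mice to survival in vehicle-treated controls, with both groups carrying the same transplanted tumor.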

The mark [1] stands for this setting: dose: 50.0 mg/kg/injection, schedule: Q04DX003 (ip), vehicle: saline with Tween-80.
Setting [2] is: dose: 100.0 mg/kg/injection, schedule: Q01DX001 (ip), vehicle: carboxymethylcellulose (CMC).
Setting [3] is: dose: 200.0 mg/kg/injection, schedule: Q01DX001 (ip), vehicle: carboxymethylcellulose (CMC).
Setting [4] is: dose: 400.0 mg/kg/injection, schedule: Q01DX001 (ip), vehicle: carboxymethylcellulose (CMC).
Where [5] appears, read: dose: 100.0 mg/kg/injection, schedule: Q04DX003 (ip), vehicle: saline with Tween-80.
Where [6] appears, read: dose: 200.0 mg/kg/injection, schedule: Q04DX003 (ip), vehicle: saline with Tween-80.

Where “and” joins values, the source holds several entries; their conditions need not be identical. Equal values may be shown once. Toxic doses and inconclusive results are not listed.

Consider `Cc1c(Cl)cc(C(C)C)c(O)c1CN1CCOCC1`, for which the T/C is, setting by setting: (dose: 222.0 mg/kg/injection, schedule: Q01DX Z (ip), vehicle: methylcellulose (MC)) 96 % of control; (dose: 333.0 mg/kg/injection, schedule: Q01DX Z (ip), vehicle: methylcellulose (MC)) 109 % of control; (dose: 500.0 mg/kg/injection, schedule: Q01DX Z (ip), vehicle: methylcellulose (MC)) 102 % of control.

For the molecule `COc1ccc(/C=C/c2cc[n+](C)cc2)cc1`, the T/C reads like this: (dose: 12.5 mg/kg/injection, schedule: Q04DX003 (ip), vehicle: saline with Tween-80) 97 % of control; (dose: 25.0 mg/kg/injection, schedule: Q04DX003 (ip), vehicle: saline with Tween-80) 94 % of control; under setting [1], 94 % of control.

Consider `CN(CC#N)c1ncnc(Cl)c1[N+](=O)[O-]`, for which the T/C is 95 % of control (dose: 50.0 mg/kg/injection, schedule: Q01DX001 (ip), vehicle: carboxymethylcellulose (CMC)); 98 % of control under setting [2]; 88 % of control under setting [3]; 98 % of control under setting [4].

Consider `O=S1(=O)c2ccccc2NC(c2ccc(Cl)cc2)C1c1ccccc1` (stereo unspecified), for which the T/C runs as follows: (dose: 100.0 mg/kg/injection, schedule: Q04DX003 (ip), vehicle: saline) 95 % of control; (dose: 200.0 mg/kg/injection, schedule: Q04DX003 (ip), vehicle: saline) 89 % of control; (dose: 400.0 mg/kg/injection, schedule: Q04DX003 (ip), vehicle: saline) 97 % of control.

Consider `COC(=O)c1ccc([N+](=O)[O-])c(OC)c1`, for which the T/C was 91 % of control (dose: 75.0 mg/kg/injection, schedule: Q01DX001 (ip), vehicle: saline); 94 % of control (dose: 75.0 mg/kg/injection, schedule: Q04DX003 (ip), vehicle: saline); 91 % of control (dose: 150.0 mg/kg/injection, schedule: Q01DX001 (ip), vehicle: saline); 108 % of control (dose: 150.0 mg/kg/injection, schedule: Q04DX003 (ip), vehicle: saline); 93 % of control (dose: 300.0 mg/kg/injection, schedule: Q01DX001 (ip), vehicle: saline); 101 % of control (dose: 300.0 mg/kg/injection, schedule: Q04DX003 (ip), vehicle: saline).

As for `CC(C)NC(=O)C1C2C=CC(CC2)C1C(=O)NC(C)C` (stereo unspecified), the T/C under setting [5] is 100 % of control; the T/C under setting [6] is 92 % of control; the T/C (dose: 400.0 mg/kg/injection, schedule: Q04DX003 (ip), vehicle: saline with Tween-80) was 104 % of control.

Regarding `CCCCNc1cc2c3c(c1)CCCN3CCC2`, the T/C (dose: 12.5 mg/kg/injection, schedule: Q01DX009 (ip), vehicle: saline) was 107 % of control; the T/C (dose: 12.5 mg/kg/injection, schedule: Q04DX003 (ip), vehicle: saline) was 95 % of control; the T/C (dose: 25.0 mg/kg/injection, schedule: Q01DX009 (ip), vehicle: saline) is 103 % of control; the T/C (dose: 25.0 mg/kg/injection, schedule: Q04DX003 (ip), vehicle: saline) was 98 % of control; the T/C (dose: 50.0 mg/kg/injection, schedule: Q04DX003 (ip), vehicle: saline) is 95 % of control.

Regarding `CNc1ncnc2c1cnn2C`, the T/C (dose: 5.0 mg/kg/injection, schedule: Q01DX015 (ip), vehicle: carboxymethylcellulose (CMC)) is 88 % of control; the T/C (dose: 10.0 mg/kg/injection, schedule: Q01DX015 (ip), vehicle: carboxymethylcellulose (CMC)) is 97 % of control; the T/C (dose: 20.0 mg/kg/injection, schedule: Q01DX015 (ip), vehicle: carboxymethylcellulose (CMC)) is 100 % of control; the T/C (dose: 40.0 mg/kg/injection, schedule: Q01DX015 (ip), vehicle: carboxymethylcellulose (CMC)) is 93 % of control; the T/C (dose: 80.0 mg/kg/injection, schedule: Q01DX015 (ip), vehicle: carboxymethylcellulose (CMC)) is 105 % of control; the T/C under setting [2] was 101 % of control. The T/C under setting [3] is 103 % of control and the T/C under setting [4] was 106 % of control.

As for `CCOC(=O)NNC(=S)Nc1cccc(C(F)(F)F)c1`, the T/C runs as follows: (dose: 100.0 mg/kg/injection, schedule: Q04DX002 (ip), vehicle: saline with Tween-80) 111 % of control; (dose: 200.0 mg/kg/injection, schedule: Q04DX002 (ip), vehicle: saline with Tween-80) 108 % of control.

In the case of `C[NH-].C[NH-].[Cl][Pt+2][Cl]`, the T/C was 111 % of control (dose: 0.38 mg/kg/injection, schedule: Q03HX024 (ip), vehicle: water); 109 % of control (dose: 0.75 mg/kg/injection, schedule: Q03HX024 (ip), vehicle: water); 108 % of control (dose: 1.0 mg/kg/injection, schedule: Q01DX009 (ip), vehicle: other); 107 % of control (dose: 1.5 mg/kg/injection, schedule: Q03HX024 (ip), vehicle: water); 106 % of control (dose: 1.56 mg/kg/injection, schedule: Q03HX008 (ip), vehicle: water); 108 % of control (dose: 2.0 mg/kg/injection, schedule: Q01DX001 (ip), vehicle: other). Further, the T/C is, setting by setting: (dose: 2.0 mg/kg/injection, schedule: Q01DX009 (ip), vehicle: other) 122 % of control; (dose: 2.5 mg/kg/injection, schedule: Q01DX009 (ip), vehicle: water) 110 % of control; (dose: 2.6 mg/kg/injection, schedule: Q01DX009 (ip), vehicle: saline with Tween-80) 113 % of control; (dose: 3.0 mg/kg/injection, schedule: Q04DX003 (ip), vehicle: water) 116 % of control; (dose: 3.13 mg/kg/injection, schedule: Q03HX008 (ip), vehicle: water) 115 % of control; (dose: 4.0 mg/kg/injection, schedule: Q01DX001 (ip), vehicle: other) 95 % of control. Besides, the T/C is 116 % of control (dose: 4.0 mg/kg/injection, schedule: Q01DX009 (ip), vehicle: other); 124 % of control (dose: 4.0 mg/kg/injection, schedule: Q01DX009 (ip), vehicle: saline with Tween-80); 115 % of control and 120 % of control (dose: 5.0 mg/kg/injection, schedule: Q04DX003 (ip), vehicle: saline with Tween-80); 123 % of control (dose: 6.0 mg/kg/injection, schedule: Q04DX003 (ip), vehicle: water); 105 % of control (dose: 8.0 mg/kg/injection, schedule: Q01DX001 (ip), vehicle: other); 123 % of control (dose: 8.0 mg/kg/injection, schedule: Q04DX003 (ip), vehicle: saline with Tween-80). Also, the T/C is, setting by setting: (dose: 9.0 mg/kg/injection, schedule: Q01DX009 (ip), vehicle: saline with Tween-80) 108 % of control; (dose: 12.0 mg/kg/injection, schedule: Q04DX003 (ip), vehicle: saline with Tween-80) 164 % of control; (dose: 12.5 mg/kg/injection, schedule: Q01DX009 (ip), vehicle: saline with Tween-80) 98 % of control and 90 % of control; (dose: 16.0 mg/kg/injection, schedule: Q01DX001 (ip), vehicle: other) 123 % of control; (dose: 16.0 mg/kg/injection, schedule: Q01DX009 (ip), vehicle: other) 90 % of control; (dose: 25.0 mg/kg/injection, schedule: Q01DX001 (ip), vehicle: water) 120 % of control. In addition, the T/C reads like this: (dose: 32.0 mg/kg/injection, schedule: Q01DX001 (ip), vehicle: other) 119 % of control; under setting [1], 88 % of control.

As for `O=C1/C(=C/c2cccnc2)CCc2ccccc21`, the T/C by setting is: (dose: 25.0 mg/kg/injection, schedule: Q01DX009 (ip), vehicle: Klucel (hydroxypropylcellulose) (HPC)) 98 % of control; (dose: 50.0 mg/kg/injection, schedule: Q01DX009 (ip), vehicle: Klucel (hydroxypropylcellulose) (HPC)) 106 % of control; (dose: 100.0 mg/kg/injection, schedule: Q01DX009 (ip), vehicle: Klucel (hydroxypropylcellulose) (HPC)) 97 % of control; under setting [5], 104 % of control; (dose: 200.0 mg/kg/injection, schedule: Q01DX009 (ip), vehicle: Klucel (hydroxypropylcellulose) (HPC)) 112 % of control; under setting [6], 97 % of control.

With `C/C(=N\O)c1c[nH]c(=O)[nH]c1=O`, the T/C (dose: 100.0 mg/kg/injection, schedule: Q04DX002 (ip), vehicle: Klucel (hydroxypropylcellulose) (HPC)) is 94 % of control and the T/C (dose: 200.0 mg/kg/injection, schedule: Q04DX002 (ip), vehicle: Klucel (hydroxypropylcellulose) (HPC)) is 103 % of control.

Values taken from PubChem BioAssay AID248 (DTP/NCI, 2004).
